Experimental findings from patent publication US12239643B2, “Therapeutic agent for inflammatory diseases, autoimmune diseases, fibrotic diseases, and cancer diseases” (MEIJI SEIKA PHARMA CO., LTD., priority 2018, dated 2025) are described below.

Structures are written as SMILES. pIC50: −log10 of the molar value.

For one test, the system named is PDE4. The test can be described thus: Evaluation of PDE4 inhibitory activity, scintillation proximity assay. Format: biochemical. Particulars: scintillation proximity assay; class symbols of Evaluation 1; read-out: PDE4 Inhibitory Activity (concentration for the inhibition rate of 50%, IC50), Evaluation 1. An outline of the steps: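 SPA with [2,8-3H]-cAMP and diluted PDE4 enzyme preparation in 50 mM Tris-HCl pH 7.4, 8.3 mM MgCl2, 1.7 mM EGTA, 3 mg/mL BSA, 120 min at room temperature. Product captured on ZnSO4-containing YSi-SPA beads, scintillation counted; IC50 from inhibition curves vs DMSO control and no-enzyme blank.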
For `CCOC(=O)c1cc(-c2nccs2)c2oc(N3CC4COCC(C3)N4)nc2c1` [Example 88, Ethyl 2-(3-oxa-7,9-diazabicyclo[3.3.1]nonan-7-yl)-7-(thiazol-2-yl)benzo[d]oxazole-5-carboxylate], the pIC50 was 6.00 to 7.00. Take `COC(C)(C)c1cc(-c2nccs2)c2oc(N3CC4CC(C3)N4)nc2c1` [Example 174, 2-(3,6-Diazabicyclo[3.1.1]heptan-3-yl)-5-(2-methoxypropan-2-yl)-7-(thiazol-2-yl)benzo[d]oxazole]: the pIC50 was more than 7.00.

For the compound `FC(F)(F)Oc1ccc(-c2nccs2)c2oc(N3CC4CCC(C3)N4)nc12` [Example 28, 2-(3,8-Diazabicyclo[3.2.1]octan-3-yl)-7-(thiazol-2-yl)-4-(trifluoromethoxy)benzo[d]oxazole], the pIC50 is more than 7.00. On the same count and under the same terms, next, `CCOC(c1cc(-c2nccs2)c2oc(N3CC4CCC(C3)N4)nc2c1)C(F)(F)F` (stereo not drawn) [Example 148, 2-(3,8-Diazabicyclo[3.2.1]octan-3-yl)-5-(1-ethoxy-2,2,2-trifluoroethyl)-7-(thiazol-2-yl)benzo[d]oxazole]: more than 7.00; `CCOC(=O)c1cc(-c2nccs2)c2oc(N3CC4CCC(C3)N4)nc2c1C(F)(F)F` [Example 163, Ethyl 2-(3,8-diazabicyclo[3.2.1]octan-3-yl)-7-(thiazol-2-yl)-4-(trifluoromethyl)benzo[d]oxazole-5-carboxylate]: more than 7.00; `COC(c1cc(-c2nccs2)c2oc(N3CC4CCC(C3)N4)nc2c1)C(F)(F)F` (stereo not drawn) [Example 142, 2-(3,8-Diazabicyclo[3.2.1]octan-3-yl)-7-(thiazol-2-yl)-5-(2,2,2-trifluoro-1-methoxyethyl)benzo[d]oxazole]: more than 7.00.

For `OCc1ccc(-c2nccs2)c2oc(N3CC4CC(C3)N4)nc12` [Example 133, (2-(3,6-Diazabicyclo[3.1.1]heptan-3-yl)-7-(thiazol-2-yl)benzo[d]oxazol-4-yl)methanol], the pIC50 was more than 7.00. Turning to `CCOC(=O)c1ccc(-c2nccs2)c2oc(N3CC4CCC(C3)N4)nc12` [Example 112, Ethyl 2-(3,8-diazabicyclo[3.2.1]octan-3-yl)-7-(thiazol-2-yl)benzo[d]oxazole-4-carboxylate], the pIC50 was more than 7.00. With `FC(F)(F)c1c(Cl)cc(-c2nccs2)c2oc(N3CC4COCC(C3)N4)nc12` [Example 19, 7-(5-Chloro-7-(thiazol-2-yl)-4-(trifluoromethyl)benzo[d]oxazol-2-yl)-3-oxa-7,9-diazabicyclo[3.3.1]nonane], the pIC50 was more than 7.00. On the same count and under the same terms, next, `FC(F)(F)Oc1c(Cl)cc(-c2ccco2)c2oc(N3CC4CCC(C3)N4)nc12` [Example 6, 2-(3,8-Diazabicyclo[3.2.1]octan-3-yl)-5-chloro-7-(furan-2-yl)-4-(trifluoromethoxy)benzo[d]oxazole]: more than 7.00; `COC(C)(c1cc(-c2nccs2)c2oc(N3CC4CCC(C3)N4)nc2c1)C(F)(F)F` (stereo not drawn) [Example 102, 2-(3,8-Diazabicyclo[3.2.1]octan-3-yl)-7-(thiazol-2-yl)-5-(1,1,1-trifluoro-2-methoxypropan-2-yl)benzo[d]oxazole]: more than 7.00; `CC(=O)N(C)c1cc(-c2nccs2)c2oc(N3CC4CCC(C3)N4)nc2c1` [Example 101, N-(2-(3,8-diazabicyclo[3.2.1]octan-3-yl)-7-(thiazol-2-yl)benzo[d]oxazol-5-yl)-N-methylacetamide]: more than 7.00.

As for `FC(F)(F)c1c(Cl)cc(-c2nccs2)c2oc(N3CC4CCC(C3)N4)nc12` [Example 20, 2-(3,8-Diazabicyclo[3.2.1]octan-3-yl)-5-chloro-7-(thiazol-2-yl)-4-(trifluoromethyl)benzo[d]oxazole], the pIC50 was more than 7.00. Regarding `CCOC(=O)c1cc(-c2nccs2)c2oc(N3CC4CCC(C3)N4)nc2c1` [Example 86, Ethyl 2-(3,8-diazabicyclo[3.2.1]octan-3-yl)-7-(thiazol-2-yl)benzo[d]oxazole-5-carboxylate], the pIC50 was more than 7.00. Still for that read-out and setting: next, `NS(=O)(=O)c1cc(-c2nccs2)c2oc(N3CC4CCC(C3)N4)nc2c1` [Example 57, 2-(3,8-Diazabicyclo[3.2.1]octan-3-yl)-7-(thiazol-2-yl)benzo[d]oxazole-5-sulfonamide]: more than 7.00; `COc1cc(-c2nccs2)c2oc(N3CC4CCC(C3)N4)nc2c1` [Example 60, 2-(3,8-Diazabicyclo[3.2.1]octan-3-yl)-5-methoxy-7-(thiazol-2-yl)benzo[d]oxazole]: more than 7.00. Same read-out and setting: next, `CC(C)(O)c1cc(-c2nccs2)c2oc(N3CC4CC(C3)N4)nc2c1` [Example 173, 2-(2-(3,6-Diazabicyclo[3.1.1]heptan-3-yl)-7-(thiazol-2-yl)benzo[d]oxazol-5-yl)propan-2-ol]: more than 7.00; `CCOC(=O)c1cc(-c2nccs2)c2oc(N3CC4CCCC(C3)N4)nc2c1` [Example 89, Ethyl 2-(3,9-diazabicyclo[3.3.1]nonan-3-yl)-7-(thiazol-2-yl)benzo[d]oxazole-5-carboxylate]: more than 7.00; `CC(=O)c1cc(-c2nccs2)c2oc(N3CC4CC(C3)N4)nc2c1C(F)(F)F` [Example 180, 1-(2-(3,6-Diazabicyclo[3.1.1]heptan-3-yl)-7-(thiazol-2-yl)-4-(trifluoromethyl)benzo[d]oxazol-5-yl)ethan-1-one]: more than 7.00. Same read-out and setting: the result for `CSc1cc(-c2nccs2)c2oc(N3CC4CCCC(C3)N4)nc2c1` [Example 41, 2-(3,9-Diazabicyclo[3.3.1]nonan-3-yl)-5-(methylthio)-7-(thiazol-2-yl)benzo[d]oxazole] reads more than 7.00.

The same test, now with this note: scintillation proximity assay; read-out: PDE4 Inhibitory Activity (Evaluation 1; concentration for the inhibition rate of 50%).
With `CC(C)C(O)C(F)(F)Oc1ccc(-c2nccs2)c2oc(N3CC4CC(C3)N4)nc12` (stereo not drawn) [Example 362, 1-((2-(3,6-Diazabicyclo[3.1.1]heptan-3-yl)-7-(thiazol-2-yl)benzo[d]oxazol-4-yl)oxy)-1,1-difluoro-3-methylbutan-2-ol], the pIC50 is more than 7.00. In the case of `COC(c1ccc(-c2nccs2)c2oc(N3CC4CCC(C3)N4)nc12)C(F)(F)F` (stereo not drawn) [Example 222, 2-(3,8-Diazabicyclo[3.2.1]octan-3-yl)-7-(thiazol-2-yl)-4-(2,2,2-trifluoro-1-methoxyethyl)benzo[d]oxazole], the pIC50 was more than 7.00. Consider `OC(c1cc(-c2nccs2)c2oc(N3CC4CC(C3)N4)nc2c1OC(F)(F)F)C(F)F` (stereo not drawn) [Example 293, 1-(2-(3,6-Diazabicyclo[3.1.1]heptan-3-yl)-7-(thiazol-2-yl)-4-(trifluoromethoxy)benzo[d]oxazol-5-yl)-2,2-difluoroethan-1-ol], for which the pIC50 was more than 7.00. Same read-out and setting: next, `O=C(O)c1cc(-c2nccs2)c2oc(N3CC4CC(C3)N4)nc2c1OC(F)(F)F` [Example 190, 2-(3,6-Diazabicyclo[3.1.1]heptan-3-yl)-7-(thiazol-2-yl)-4-(trifluoromethoxy)benzo[d]oxazole-5-carboxylic acid]: less than 6.00; `COC(C)c1cc(-c2nccs2)c2oc(N3CC4CC(C3)N4)nc2c1OC(F)(F)F` (stereo not drawn) [Example 211, 2-(3,6-Diazabicyclo[3.1.1]heptan-3-yl)-5-(1-methoxyethyl)-7-(thiazol-2-yl)-4-(trifluoromethoxy)benzo[d]oxazole]: more than 7.00; `CCOC(=O)c1cc(-c2nccs2)c2oc(N3CC4CC(C3)N4)nc2c1OC(F)(F)F` [Example 187, Ethyl 2-(3,6-diazabicyclo[3.1.1]heptan-3-yl)-7-(thiazol-2-yl)-4-(trifluoromethoxy)benzo[d]oxazole-5-carboxylate]: more than 7.00.

Regarding `FC(F)(Oc1ccc(-c2nccs2)c2oc(N3CC4CC(C3)N4)nc12)c1nc2ccccc2o1` [Example 403, 4-(Benzo[d]oxazol-2-yldifluoromethoxy)-2-(3,6-diazabicyclo[3.1.1]heptan-3-yl)-7-(thiazol-2-yl)benzo[d]oxazole], the pIC50 is more than 7.00.

In the case of `OC(c1ccc(-c2nccs2)c2oc(N3CC4CCC(C3)N4O)nc12)C(F)(F)F` (stereo not drawn) [Example 379, 3-(7-(Thiazol-2-yl)-4-(2,2,2-trifluoro-1-hydroxyethyl)benzo[d]oxazol-2-yl)-3,8-diazabicyclo[3.2.1]octan-8-ol], the pIC50 is more than 7.00. Still for that read-out and setting: next, `O=C(NCc1ccccc1)c1ccc(-c2nccs2)c2oc(N3CC4CC(C3)N4)nc12` [Example 361, N-benzyl-2-(3,6-diazabicyclo[3.1.1]heptan-3-yl)-7-(thiazol-2-yl)benzo[d]oxazole-4-carboxamide]: more than 7.00.

For `N#CCOC(c1ccc(-c2nccs2)c2oc(N3CC4CCC(C3)N4)nc12)C(F)(F)F` (stereo not drawn) [Example 228, 2-(1-(2-(3,8-Diazabicyclo[3.2.1]octan-3-yl)-7-(thiazol-2-yl)benzo[d]oxazol-4-yl)-2,2,2-trifluoroethoxy)acetonitrile], the pIC50 was more than 7.00.

As to `CC(C)(O)CC(F)(F)Oc1ccc(-c2nccs2)c2oc(N3CC4CC(C3)N4)nc12` [Example 295, 4-((2-(3,6-Diazabicyclo[3.1.1]heptan-3-yl)-7-(thiazol-2-yl)benzo[d]oxazol-4-yl)oxy)-4,4-difluoro-2-methylbutan-2-ol], the pIC50 is more than 7.00.

`CC(O)(c1ccc(-c2nccs2)c2oc(N3CC4CC(C3)N4)nc12)C(F)F` (stereo not drawn) [Example 297, 2-(2-(3,6-Diazabicyclo[3.1.1]heptan-3-yl)-7-(thiazol-2-yl)benzo[d]oxazol-4-yl)-1,1-difluoropropan-2-ol]: the pIC50 is more than 7.00.

As to `OC1(c2cc(-c3nccs3)c3oc(N4CC5CC(C4)N5)nc3c2OC(F)(F)F)CC1` [Example 269, 1-(2-(3,6-Diazabicyclo[3.1.1]heptan-3-yl)-7-(thiazol-2-yl)-4-(trifluoromethoxy)benzo[d]oxazol-5-yl)cyclopropan-1-ol], the pIC50 was more than 7.00.
